In patent publication US12404242B2, “Compositions and methods for making and using small molecules in the treatment of cancer” (Reglagene, Inc., priority 2021, dated 2025):
Converted amounts (≈) assume the structure as drawn. Read-outs that look alike come from different tables or passages of the source.

Legend:
[1] = tested on: LNCaP cells; assay: Cell viability (AlamarBlue), LNCaP prostate cancer cells; type: cell-based, human; settings: Homo sapiens, LNCaP, 72 h, 72 hours of treatment
How it was run: (§1)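 Viability is read by AlamarBlue fluorescence after cells, seeded 24 hours earlier, are treated for 72 hours with a concentration series of compound. Signals are expressed relative to no-treatment controls before EC50 fitting.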

[2] = tested on: 22RV1 cells; assay: Cell viability (AlamarBlue), 22RV1 prostate cancer cells; type: cell-based, human; settings: 72 hours of treatment
How it was run: as §1

[3] = tested on: U87 cells; assay: Cell viability (AlamarBlue), U87 glioblastoma cells; type: cell-based, human; settings: 72 hours of treatment
How it was run: as §1

[4] = tested on: MCF7 cells; assay: Cell viability (AlamarBlue), MCF7 breast cancer cells; type: cell-based; settings: Homo sapiens, 72 hours of treatment
Experimental: (§2) In another exemplary method, half maximal effective concentration (EC50) was determined for some compounds and their isomers as disclosed herein in a variety of human cancer cell lines. In brief, cells from two prostate cancer cell lines (LNCaP, 22RV1), one glioblastoma cell line (U87), one breast cancer cell line (MCF7), a glioma cell line (LN18), a normal prostate cell line (RWPE1), and a glioblastoma cell line (T98G) were plated in a multi-well plate. After 24 hours, one of the compounds herein was added to the well at increasing concentrations. After 72 hours of treatment, cell viability was assessed using AlamrBlue® (Invitrogen) and fluorescence was read using the CLARIOstar Plus Multilabel Plate Reader (BMG Labtech). Samples were normalized to no treatment controls. EC50 values were determined using GraphPad Prism.

[5] = tested on: RWPE1 cells; assay: Cell viability (AlamarBlue), RWPE1 normal prostate cells; type: cell-based, human; set-up: key to EC50 (μM) in RWPE1 cells: Inactive: less than 50% inhibition at the highest concentration tested at 50 μM; settings: 72 hours of treatment, normal prostate cell line
How it was run: as §1

[6] = Plasma and brain tissue levels after oral dose, brain tumor xenograft mice; type: in vivo, CrTac:NCr-Foxn1nu athymic nude mouse; settings: CrTac:NCr-Foxn1nu athymic nude, single oral dose 100 mg/kg
Experimental: In another exemplary method, levels of Compound 19A were determined in plasma and brain tissue following administration. For these studies, a CrTac:NCr-Foxn1^nu athymic nude mouse strain was used as an acceptable mouse model. For these experiments, CrTac:NCr-Foxn1^nu athymic nude mouse received […] of tumors implanted into the brain tissues. Compound 19A was then administered to the mice orally as a homogenous suspension in DMSO: (PEG 400: PVP=95:5)=1:4. A single dose of 100 mg/kg of Compound 19A was administered in this manner. Concentrations of the Compound 19A in plasma and brain tissue (after extraction) were measured using HPLC-MS quantitation.
FIG. 51 and Table 8 illustrate increasing concentrations of Compound 19A in both the left, healthy brain tissue and the right experimental brain tissue containing tumor as well as in plasma over time.

[7] = tested on: LN18 glioblastoma cancer cells; assay: Combination with Temozolomide, Bliss synergy in LN18 cells; type: cell-based; settings: Temozolomide 0 to 1000 uM, compound 0.625 to 10 uM
Experimental: Synergy was calculated with the Bliss independence model. Compounds were combined at concentrations of 0 to 1000 uM for Temozolomide and 0.625 to 10 uM for compounds 19 and 59.

[8] = tested on: 22Rv1 prostate cancer cells; assay: Combination with Rabusertib, Bliss synergy in 22Rv1 cells; type: cell-based; settings: Rabusertib 0 to 30 uM, compound 0.625 to 5 uM
Experimental: Synergy was calculated with the Bliss independence model. Compounds were combined at concentrations of 0 to 30 uM for Rabusertib and 0.625 to 5 uM for compounds 73 and 76.

[9] = tested on: LN18 cells; assay: Cell viability (AlamarBlue), LN18 glioma cells; type: cell-based; settings: Homo sapiens, LN-18, 72 hours of treatment
Experimental: as §2

[10] = tested on: tubulin; assay: Tubulin polymerization assay; type: biochemical; settings: 5 uM (FIG. 41A, 41C) or 1 uM (FIG. 41B)
Experimental: FIG. 41A-41C represent exemplary experiments illustrating inhibition of tubulin polymerization. FIG. 41A illustrates effects of compounds 19, 73, 86, 93 and 94 at 5 uM concentration. FIG. 41B illustrates effects of compounds 93, 94, 95 and 96 at 1 uM concentration.
FIG. 41C illustrates effects of compounds 73, 86, 87 and 88 at 5 uM concentration in accordance with certain embodiments of the present disclosure. Colchicine and vincristine are positive controls.
FIG. 42A-42B represent exemplary experiments illustrating inhibition of tubulin polymerization. FIG. 42A illustrates effects of compound 19 at 0.3, 1, 3 and 6 uM concentrations.
FIG. 42B illustrates effects of compound 73 at […] concentration in accordance with certain embodiments of the present disclosure. Colchicine and nocodazole are positive controls.
In another exemplary method, the effect of the compounds herein on tubulin polymerization was determined. FIG. 41A illustrates effects of compounds 19, 73, 86, 93 and 94 at 5 uM concentration, FIG. 41B illustrates effects of compounds 93, 94, 95 and 96 at 1 uM concentration, or FIG. 41C illustrates effects of compounds 87 and 88 at 5 uM concentration in accordance with certain embodiments of the present disclosure. Colchicine and vincristine are positive controls.
The dose dependent effect of compounds 19 and 73 on tubulin polymerization was also determined. FIG. 42A illustrates effects of compound 19 at 0.3, 1, 3 and 6 uM concentrations, and FIG. 42B illustrates effects of compound 73 at 0.1, 0.3, 1, 3 and 5 uM concentration in accordance with certain embodiments of the present disclosure. Colchicine and nocodazole are positive controls.

[11] = Kinetic solubility in aqueous PBS buffer (HPLC-MS); type: physicochemical; settings: kinetic from dmso stock, DMSO stock mixed with aqueous PBS buffer, filtered, read-out: Kinetic Solubility
How it was run: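 A concentrated DMSO stock was mixed with aqueous PBS buffer and filtered. The filtrate was quantified against an HPLC-MS calibration curve.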

[12] = tested on: T98G cells; assay: Cell viability (AlamarBlue), T98G glioblastoma cells; type: cell-based; settings: Homo sapiens, 72 hours of treatment
Experimental: as §2

[13] = mouse, brain tissue (left, healthy), read-out: Brain Tissue Healthy, Left concentration
[14] = mouse, brain tissue (right, containing tumor), read-out: Brain Tissue Tumor, right concentration
[15] = plasma, tumor-bearing nude mouse, read-out: Plasma concentration

Row | SMILES | EC50 ([3]; Homo sapiens, U-87 MG, 72 h) | EC50 [9] | effect on tubulin polymerization [10] | solubility kinetic [11] | other results
1 | COC1CC(C(=O)NC(=O)Nc2ccc(Oc3ccc(Cl)cn3)c(C)c2)C1 (single isomer, unassigned) [Compound 19A, 1-{4-[(5-chloropyridin-2-yl)oxy]-3-methylphenyl}-3-(3-methoxycyclobutanecarbonyl) urea] |  |  |  |  | EC50 [1]: 0.87 µM; EC50 [2]: 0.95 µM; EC50 [3]: 2.2 µM; EC50 [4]: 2.8 µM; EC50 (μM) in RWPE1 cells [5]: Inactive; concentration at 0.5 h [6, 13]: 767 ng/g; concentration at 1 h [6, 13]: 1230 ng/g; concentration at 6 h [6, 13]: 1460 ng/g; concentration at 0.5 h [6, 14]: 828 ng/g; concentration at 1 h [6, 14]: 1460 ng/g; concentration at 6 h [6, 14]: 1520 ng/g; concentration at 0.5 h [6, 15]: 973 ng/mL; concentration at 1 h [6, 15]: 1340 ng/mL; concentration at 6 h [6, 15]: 1510 ng/mL
2 | COC1CC(C(=O)NC(=O)Nc2ccc(Oc3nc(C)c(C)s3)c(C)c2)C1 (stereo not shown) [Compound 59, N-((4-((4,5-dimethylthiazol-2-yl)oxy)-3-methylphenyl)carbamoyl)-3-methoxycyclobutane-1-carboxamide] | 0.002 µM |  |  |  | EC50 [1]: 0.27 µM; EC50 ([2]; Homo sapiens, 22Rv1, 72 h): 0.08 µM; Bliss Synergy value, combination with Temozolomide ([7]; LN18 cells, Bliss independence model): 20.0; effect of combination with Temozolomide on cancer cell viability [7]: synergistic decrease in cancer cell viability
3 | COC1CC(C(=O)NC(=O)Nc2cc(C)c(Oc3ccc(Cl)cn3)c(F)c2)C1 (stereo not shown) [Compound 76, N-((4-((5-chloropyridin-2-yl)oxy)-3-fluoro-5-methylphenyl)carbamoyl)-3-methoxycyclobutane-1-carboxamide] | 0.1 µM |  |  |  | Bliss Synergy value, combination with Rabusertib ([8]; 22Rv1 cells, Bliss independence model): 15.3; effect of combination with Rabusertib on cancer cell viability [8]: synergistic decrease in cancer cell viability
4 | COC12CC(C(=O)NC(=O)Nc3ccc(Oc4ccc(Cl)cn4)c(C)c3)(C1)C2 [Compound 84, N-((4-((5-chloropyridin-2-yl)oxy)-3-methylphenyl)carbamoyl)-3-methoxybicyclo[1.1.1]pentane-1-carboxamide] | 0.16 µM | 0.01 µM |  |  | 
5 | COC12CC(C(=O)NC(=O)Nc3ccc(Oc4ccccn4)c(C)c3)(C1)C2 [Compound 86, 3-methoxy-N-((3-methyl-4-(pyridin-2-yloxy)phenyl)carbamoyl)bicyclo[1.1.1]pentane-1-carboxamide] | 0.26 µM |  | significantly inhibit tubulin polymerization |  | 
6 | COC12CC(C(=O)NC(=O)Nc3ccc(Oc4ncccn4)c(C)c3)(C1)C2 [Compound 87, 3-methoxy-N-((3-methyl-4-(pyrimidin-2-yloxy)phenyl)carbamoyl)bicyclo[1.1.1]pentane-1-carboxamide] | 1.2 µM |  | significantly inhibit tubulin polymerization | 27.5 µM (≈ 10.1 µg/mL) | 
7 | COC12CC(C(=O)NC(=O)Nc3ccc(Oc4ncc(F)cn4)c(C)c3)(C1)C2 [Compound 88, N-((4-((5-fluoropyrimidin-2-yl)oxy)-3-methylphenyl)carbamoyl)-3-methoxybicyclo[1.1.1]pentane-1-carboxamide] | 1.45 µM |  | significantly inhibit tubulin polymerization | 10.9 µM (≈ 4.21 µg/mL) | 
8 | COC12CC(C(=O)NC(=O)Nc3cc(C)c(Oc4ncc(Cl)cn4)c(F)c3)(C1)C2 [Compound 90, N-((4-((5-chloropyrimidin-2-yl)oxy)-3-fluoro-5-methylphenyl)carbamoyl)-3-methoxybicyclo[1.1.1]pentane-1-carboxamide] | 0.065 µM | 0.034 µM |  | 2.17 µM (≈ 0.913 µg/mL) | EC50 [12]: 0.0384 µM
9 | COC12CC(C(=O)NC(=O)Nc3cc(C)c(Oc4ccc(F)cn4)c(F)c3)(C1)C2 [Compound 91, N-((3-fluoro-4-((5-fluoropyridin-2-yl)oxy)-5-methylphenyl)carbamoyl)-3-methoxybicyclo[1.1.1]pentane-1-carboxamide] | 0.63 µM | 0.087 µM |  |  | EC50 [12]: 0.167 µM
10 | COC1CC(C(=O)NC(=O)Nc2ccc(C)c(Oc3ccccn3)c2)C1 (stereo not shown) [Compound 94, 3-methoxy-N-((4-methyl-3-(pyridin-2-yloxy)phenyl)carbamoyl)cyclobutane-1-carboxamide] | 0.045 µM |  | significantly inhibit tubulin polymerization | 11.8 µM (≈ 4.19 µg/mL) | 
11 | COC1CC(C(=O)NC(=O)Nc2ccc(C)c(Oc3ccc(F)cn3)c2)C1 (stereo not shown) [Compound 95, N-((3-((5-fluoropyridin-2-yl)oxy)-4-methylphenyl)carbamoyl)-3-methoxycyclobutane-1-carboxamide] | 0.014 µM |  | significantly inhibit tubulin polymerization | 7.2 µM (≈ 2.69 µg/mL) | 
12 | COC1CC(C(=O)NC(=O)Nc2ccc(C)c(Oc3ncccn3)c2)C1 (stereo not shown) [Compound 96, 3-methoxy-N-((4-methyl-3-(pyrimidin-2-yloxy)phenyl)carbamoyl)cyclobutane-1-carboxamide] | 0.035 µM |  | significantly inhibit tubulin polymerization | 14.8 µM (≈ 5.27 µg/mL) | 
13 | COC12CC(C(=O)NC(=O)Nc3ccc(C)c(Oc4ncccn4)c3)(C1)C2 [Compound 97, 3-methoxy-N-((4-methyl-3-(pyrimidin-2-yloxy)phenyl)carbamoyl)bicyclo[1.1.1]pentane-1-carboxamide] | 0.02 µM | 0.011 µM |  | 5.8 µM (≈ 2.14 µg/mL) | EC50 [12]: 0.026 µM
